# Experimental data as given in ChEMBL document CHEMBL1201862, “PubChem BioAssay data set” (2004).
#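 Step 1: Grow cells in 96-well plates. Step 2: Expose to compound for 48 hours at 5 concentrations. Step 3: Interpolate endpoints linearly; if unreached, use highest concentration. The concentration for 50% growth inhibition is given as GI50.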 Active and inactive are the calls of the source. Cut-off read from the data, not from the text of the source: active = GI50 up to about 1.1 µM and inactive = higher.
# Key:
# Assay in all cases: inhibition of tumour cell growth, NCI panel, 48 h
# 786-0 = system: 786-0
# A498 = system: A498
# A549 = system: A549
# ACHN = system: ACHN
# BT-549 = system: BT-549
# CAKI-1 = system: CAKI-1
# CCRF-CEM = system: CCRF-CEM
# COLO 205 = system: COLO 205
# DU-145 = system: DU-145
# EKVX = system: EKVX
# HCC 2998 = system: HCC 2998
# HCT-116 = system: HCT-116
# HCT-15 = system: HCT-15
# HL-60 = system: HL-60
# HOP-62 = system: HOP-62
# HOP-92 = system: HOP-92
# HT-29 = system: HT-29
# Hs-578T = system: Hs-578T
# IGROV-1 = system: IGROV-1
# K562 = system: K562
# KM12 = system: KM12
# LOX IMVI = system: LOX IMVI
# M14 = system: M14
# MCF7 = system: MCF7
# MDA-MB-231 = system: MDA-MB-231
# MDA-MB-435 = system: MDA-MB-435
# MDA-N = system: MDA-N
# MOLT-4 = system: MOLT-4
# Malme-3M = system: Malme-3M
# NCI-H226 = system: NCI-H226
# NCI-H23 = system: NCI-H23
# NCI-H460 = system: NCI-H460
# NCI-H522 = system: NCI-H522
# NCI/ADR-RES = system: NCI/ADR-RES
# OVCAR-3 = system: OVCAR-3
# OVCAR-4 = system: OVCAR-4
# OVCAR-5 = system: OVCAR-5
# OVCAR-8 = system: OVCAR-8
# PC-3 = system: PC-3
# RPMI-8226 = system: RPMI-8226
# RXF 393 = system: RXF 393
# SF-268 = system: SF-268
# SF-295 = system: SF-295
# SF-539 = system: SF-539
# SK-MEL-28 = system: SK-MEL-28
# SK-MEL-2 = system: SK-MEL-2
# SK-MEL-5 = system: SK-MEL-5
# SK-OV-3 = system: SK-OV-3
# SN12C = system: SN12C
# SNB-19 = system: SNB-19
# SNB-75 = system: SNB-75
# SR = system: SR
# SW-620 = system: SW-620
# T47D = system: T47D
# TK-10 = system: TK-10
# U-251 = system: U-251
# UACC-257 = system: UACC-257
# UACC-62 = system: UACC-62
# UO-31 = system: UO-31
compound,measurement,setting,value
OC(CCN1CCN(CCOC(c2ccc(F)cc2)c2ccc(F)cc2)CC1)c1ccc(Br)cc1 (configuration not stated),GI50,786-0,2.68 µM (inactive)
same,GI50,A498,2.12 µM (inactive)
same,GI50,A549,9.44 µM (inactive)
same,GI50,ACHN,4.76 µM (inactive)
same,GI50,BT-549,5.83 µM (inactive)
same,GI50,CAKI-1,2.02 µM (inactive)
same,GI50,CCRF-CEM,2.77 µM (inactive)
same,GI50,COLO 205,1.85 µM (inactive)
same,GI50,DU-145,6.21 µM (inactive)
same,GI50,EKVX,5.15 µM (inactive)
same,GI50,HCC 2998,1.97 µM (inactive)
same,GI50,HCT-116,2.8 µM (inactive)
same,GI50,HCT-15,2.74 µM
same,GI50,HL-60,2.77 µM (inactive)
same,GI50,HOP-62,6.12 µM (inactive)
same,GI50,HOP-92,4.37 µM (inactive)
same,GI50,HT-29,3.32 µM (inactive)
same,GI50,Hs-578T,4.89 µM (inactive)
same,GI50,IGROV-1,4.57 µM (inactive)
same,GI50,K562,2.45 µM (inactive)
same,GI50,KM12,2.44 µM (inactive)
same,GI50,LOX IMVI,2.04 µM (inactive)
same,GI50,M14,1.96 µM (inactive)
same,GI50,MCF7,3.37 µM (inactive)
same,GI50,MDA-MB-231,5.74 µM (inactive)
same,GI50,MDA-MB-435,2.27 µM (inactive)
same,GI50,MDA-N,2.61 µM (inactive)
same,GI50,MOLT-4,2.4 µM (inactive)
same,GI50,Malme-3M,2.12 µM (inactive)
same,GI50,NCI-H226,5.7 µM (inactive)
same,GI50,NCI-H23,6.75 µM (inactive)
same,GI50,NCI-H460,2.42 µM (inactive)
same,GI50,NCI-H522,5.74 µM (inactive)
same,GI50,NCI/ADR-RES,2.21 µM (inactive)
same,GI50,OVCAR-3,3.34 µM (inactive)
same,GI50,OVCAR-4,4.01 µM (inactive)
same,GI50,OVCAR-5,15.5 µM (inactive)
same,GI50,OVCAR-8,2.02 µM (inactive)
same,GI50,PC-3,4.83 µM (inactive)
same,GI50,RPMI-8226,2.67 µM (inactive)
same,GI50,RXF 393,3.94 µM (inactive)
same,GI50,SF-268,4.76 µM (inactive)
same,GI50,SF-295,4.62 µM (inactive)
same,GI50,SF-539,2.3 µM (inactive)
same,GI50,SK-MEL-28,2.69 µM (inactive)
same,GI50,SK-MEL-2,5.36 µM (inactive)
same,GI50,SK-MEL-5,1.69 µM (inactive)
same,GI50,SK-OV-3,7.35 µM (inactive)
same,GI50,SN12C,2.68 µM (inactive)
same,GI50,SNB-19,7.6 µM (inactive)
same,GI50,SNB-75,9.77 µM (inactive)
same,GI50,SR,2.34 µM (inactive)
same,GI50,SW-620,4.67 µM (inactive)
same,GI50,T47D,3.05 µM (inactive)
same,GI50,TK-10,6.76 µM (inactive)
same,GI50,U-251,4.11 µM (inactive)
same,GI50,UACC-257,1.96 µM (inactive)
same,GI50,UACC-62,4.06 µM (inactive)
same,GI50,UO-31,2.22 µM (inactive)
O=C(OC1C=C=CS(=O)(=O)CC#C/C=C\1)c1cnc2ccccc2n1 (configuration not stated),GI50,A498,> 100 µM (inactive)
same,GI50,A549,> 100 µM (inactive)
same,GI50,ACHN,93.1 µM (inactive)
same,GI50,BT-549,> 100 µM (inactive)
same,GI50,CAKI-1,> 100 µM (inactive)
same,GI50,CCRF-CEM,> 100 µM (inactive)
same,GI50,COLO 205,63.7 µM (inactive)
same,GI50,DU-145,> 100 µM (inactive)
same,GI50,EKVX,97.3 µM (inactive)
same,GI50,HCC 2998,> 100 µM (inactive)
same,GI50,HCT-116,92.3 µM (inactive)
same,GI50,HCT-15,48.4 µM
same,GI50,HL-60,76.4 µM (inactive)
same,GI50,HOP-62,> 100 µM (inactive)
same,GI50,HOP-92,12.7 µM (inactive)
same,GI50,HT-29,> 100 µM (inactive)
same,GI50,Hs-578T,> 100 µM (inactive)
same,GI50,IGROV-1,79.6 µM (inactive)
same,GI50,K562,61.4 µM (inactive)
same,GI50,KM12,> 100 µM (inactive)
same,GI50,LOX IMVI,29.8 µM (inactive)
same,GI50,M14,> 100 µM (inactive)
same,GI50,MCF7,27.5 µM (inactive)
same,GI50,MDA-MB-231,28.8 µM (inactive)
same,GI50,MDA-MB-435,> 100 µM (inactive)
same,GI50,MDA-N,52 µM (inactive)
same,GI50,MOLT-4,50.7 µM (inactive)
same,GI50,Malme-3M,> 100 µM (inactive)
same,GI50,NCI-H226,> 100 µM (inactive)
same,GI50,NCI-H23,83.6 µM (inactive)
same,GI50,NCI-H460,> 100 µM (inactive)
same,GI50,NCI-H522,25.7 µM (inactive)
same,GI50,NCI/ADR-RES,> 100 µM (inactive)
same,GI50,OVCAR-3,> 100 µM (inactive)
same,GI50,OVCAR-4,> 100 µM (inactive)
same,GI50,OVCAR-5,> 100 µM (inactive)
same,GI50,OVCAR-8,> 100 µM (inactive)
same,GI50,PC-3,> 100 µM (inactive)
same,GI50,RPMI-8226,57 µM (inactive)
same,GI50,RXF 393,> 100 µM (inactive)
same,GI50,SF-268,> 100 µM (inactive)
same,GI50,SF-295,> 100 µM (inactive)
same,GI50,SF-539,> 100 µM (inactive)
same,GI50,SK-MEL-28,> 100 µM (inactive)
same,GI50,SK-MEL-2,> 100 µM (inactive)
same,GI50,SK-MEL-5,91.4 µM (inactive)
same,GI50,SK-OV-3,> 100 µM (inactive)
same,GI50,SN12C,> 100 µM (inactive)
same,GI50,SNB-19,> 100 µM (inactive)
same,GI50,SNB-75,> 100 µM (inactive)
same,GI50,SR,68.9 µM (inactive)
same,GI50,SW-620,40.8 µM (inactive)
same,GI50,T47D,> 100 µM (inactive)
same,GI50,TK-10,> 100 µM (inactive)
same,GI50,U-251,84.1 µM (inactive)
same,GI50,UACC-257,> 100 µM (inactive)
same,GI50,UACC-62,26.4 µM (inactive)
same,GI50,UO-31,76.6 µM (inactive)
